Consider 12 compounds from ChEMBL document CHEMBL1201862, “PubChem BioAssay data set” (2004).

Holding throughout (assay): NCI anticancer screen, dose series, 48 h
For test [1], the system named is HL-60.
Test [2] deals with OVCAR-3.
In test [3] the test system is HOP-92.
For test [4], the system named is MCF7.
For test [5], the system named is SK-MEL-2.
Test [6] concerns SK-OV-3.
For test [7], the system named is Hs-578T.
Test [8] concerns KM12.
Test [9] has as its system HCT-15.
The test system of test [10] is RXF 393.
In test [11] the test system is UACC-62.
Test [12] concerns OVCAR-4.
Test [13] deals with CAKI-1.
Test [14] relates to LOX IMVI.
The test system of test [15] is UO-31.
The test system of test [16] is SK-MEL-5.
Test [17] has as its system OVCAR-8.
The subject of test [18] is NCI/ADR-RES.
Test [19] relates to SR.
Test [20] relates to RPMI-8226.

SMILES strings stand for the structures.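 Test compounds were applied to cells in 96-well plates for 48 hours at 5 doses. Abbreviation: GI50, concentration required for 50% inhibition of growth.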 Active and inactive are the calls of the source. Cut-off read from the data, not from the text of the source: active = GI50 up to about 1.1 µM and inactive = higher. Some results are limits rather than exact numbers.

On to `COc1ccc(Cc2nc3cc(C(F)(F)F)ccc3n2CCCN(C)C)cc1`, for which the GI50 in [1] was 11.8 µM (inactive); in [2], 17.3 µM (inactive); in test [3] it was 26.5 µM (inactive); in test [4], 17.9 µM (inactive); in test [5], 19 µM (inactive); in test [6], 16.7 µM (inactive). In addition, the GI50 was 17.5 µM (inactive) in [7]; 16.7 µM (inactive) in test [8]; 20 µM in [9]; 14.7 µM (inactive) in test [10]; 17.7 µM (inactive) in [11]; 27.2 µM (inactive) in test [12]. The GI50 in [13] is 18.2 µM (inactive); in test [14], 19.8 µM (inactive); in [15] it was 0.246 µM (active); in test [16], 16.2 µM (inactive); in [17], 30.6 µM (inactive); in [18], 14.6 µM (inactive).
`COc1cc(/C=C/C(=O)OCC23CC[C@@]4(C(=O)O)CCC(C)[C@H](C)C4C2=CCC2[C@@]4(C)CC[C@H](O)C(C)(C)C4CC[C@]23C)ccc1O` (some centres undefined): the GI50 in [1] is 23.4 µM (inactive); in test [2] it was 3.88 µM (inactive); in test [4], 10.7 µM (inactive); in test [5], 22.5 µM (inactive); in [6], 29 µM (inactive); in test [7], 4.66 µM (inactive). For the same compound, the GI50 in [8] was 29.9 µM (inactive); in [9], 21.6 µM; in test [10], 12.7 µM (inactive); in test [11], 19.6 µM (inactive); in test [12], 17.5 µM (inactive); in test [13] it was 44.4 µM (inactive). Also, the GI50 in test [14] was 15.6 µM (inactive); in test [19] it was 19.4 µM (inactive); in [16] it was 16.1 µM (inactive); in [17], 15.9 µM (inactive); in [18] it was 15.6 µM (inactive).
Consider `NC1=NC(c2ccccc2)CC(c2cc(Cl)cc(Br)c2O)=N1` (centres undefined), for which the GI50 in [1] is 3.28 µM (inactive); in test [2], 15.8 µM (inactive); in test [3] it was 18 µM (inactive); in [4] it was 2.44 µM (inactive); in [5], 4.59 µM (inactive); in test [6], 24.7 µM (inactive). Besides, the GI50 in test [8] was 11 µM (inactive); in [9], 7.64 µM; in [10], 4.36 µM (inactive); in [11] it was 10.1 µM (inactive); in [12] it was 15.4 µM (inactive); in [13], 13.3 µM (inactive). The GI50 was 7.31 µM (inactive) in [20]; 12.7 µM (inactive) in test [14]; 16.4 µM (inactive) in test [15]; 6.43 µM (inactive) in test [19]; 11.7 µM (inactive) in test [16]; 17.1 µM (inactive) in [17]. The GI50 in test [18] was 9.35 µM (inactive).
In the case of `NNc1[nH]c(=S)[nH]c1C(N)=O`, the GI50 in test [1], in test [2], in test [4], in test [5], in test [6] and in [7] was > 100 µM (inactive) in each case. In addition, the GI50 is > 100 µM (inactive) in [8]; greater than 100 µM in test [9]; > 100 µM (inactive) in [10]; > 100 µM (inactive) in test [11]; > 100 µM (inactive) in test [12]; > 100 µM (inactive) in test [20]. Moreover, the GI50 in test [14], in [15], in [16], in test [17] and in test [18] was > 100 µM (inactive) throughout.
Regarding `COC(=O)C1(NC(=O)C(Cc2ccccc2)N(C(=O)OC(C)(C)C)C(=O)OC(C)(C)C)CCCC1` (centres undefined), the GI50 is 22.1 µM (inactive) in [1]; 59.2 µM (inactive) in [3]; 27.5 µM (inactive) in test [4]; > 100 µM (inactive) in [5]; > 100 µM (inactive) in test [6]; > 100 µM (inactive) in test [7]. For the same compound, the GI50 in test [9] was 66.4 µM; in test [11] it was 20.1 µM (inactive); in [20], 20 µM (inactive); in test [14] it was > 100 µM (inactive); in test [15], 64 µM (inactive); in [19] it was > 10 µM (inactive). The results for the GI50 in test [16], in test [17] and in test [18] were > 100 µM (inactive), 43.9 µM (inactive) and 22.3 µM (inactive), respectively.
Take `COc1ccc(-c2cc(O)c3cccnc3n2)cc1`: the GI50 in test [4] was 19 µM (inactive); in [5] it was 83.8 µM (inactive); in test [6], 26.7 µM (inactive); in test [7] it was 24.9 µM (inactive); in [8], 33.7 µM (inactive); in test [9], 34.3 µM. Moreover, the GI50 was 44.5 µM (inactive) in test [10]; 23.2 µM (inactive) in [11]; 67.6 µM (inactive) in test [12]; 17.9 µM (inactive) in [13]; 22.9 µM (inactive) in test [20]; 28.1 µM (inactive) in test [14]. Moreover, the results for the GI50 in [15], in [17] and in [18] were 54.6 µM (inactive), 57.1 µM (inactive) and 47.6 µM (inactive), respectively.
Regarding `Cc1cc(Nc2ccc(S(=O)(=O)O)c3cc(S(=O)(=O)O)cc(S(=O)(=O)O)c23)c2ccccc2n1`, the GI50 in test [1], in [2], in [4], in test [5], in test [6] and in test [7] was > 100 µM (inactive) each time. For the same compound, the GI50 in [8] is > 100 µM (inactive); in test [9], greater than 100 µM; in [10], > 100 µM (inactive); in [11], > 100 µM (inactive); in test [12], > 100 µM (inactive); in test [13], > 100 µM (inactive). The GI50 in test [20], in test [14], in test [15], in test [16], in test [17] and in test [18] was > 100 µM (inactive) throughout.
As for `CCOP(=O)(OCC)C(c1ccc(F)cc1)N(C(=O)NC(F)(F)F)c1ccc(F)cc1` (centres undefined), the GI50 in [1] is > 100 µM (inactive); in [2], > 100 µM (inactive); in test [4], > 100 µM (inactive); in test [7], > 100 µM (inactive); in test [8] it was > 100 µM (inactive); in test [9], greater than 100 µM. Besides, the GI50 in test [10], in test [13], in [20], in test [14], in test [15] and in test [19] was > 100 µM (inactive) each time. Also, the GI50 in test [16], in [17] and in test [18] was > 100 µM (inactive) each time.
In the case of `C[C@]12CC[C@H](O)CC1=CC[C@@H]1[C@@H]2CC[C@]2(C)NC(=O)/C(=C\c3ccccc3)C[C@@H]12`, the GI50 is 11.9 µM (inactive) in [2]; 14.4 µM (inactive) in test [4]; 12.6 µM (inactive) in test [5]; 18.9 µM (inactive) in test [6]; 14.5 µM (inactive) in test [8]; 17.4 µM in test [9]. For the same compound, the GI50 in test [10] was 13.5 µM (inactive); in test [11], 18.3 µM (inactive); in [12] it was 5.64 µM (inactive); in test [13], 25.2 µM (inactive); in test [20], 21.6 µM (inactive); in test [14], 16.8 µM (inactive). Besides, the GI50 in [15] was 12.9 µM (inactive); in test [19], 28.7 µM (inactive); in [16], 12.9 µM (inactive); in [17] it was 21.1 µM (inactive); in test [18] it was 18.5 µM (inactive).
Regarding `O=c1c2cn[nH]c2nc2scc(-c3ccc(Cl)cc3)n12`, the GI50 in test [2] is > 100 µM (inactive); in [4] it was > 100 µM (inactive); in [5], 53.6 µM (inactive); in test [6], > 100 µM (inactive); in test [7], 41.7 µM (inactive); in [8], > 100 µM (inactive). In addition, the GI50 in [9] was greater than 100 µM; in test [10], > 100 µM (inactive); in test [11] it was > 100 µM (inactive); in test [12], > 100 µM (inactive); in test [13], > 100 µM (inactive); in [20], > 100 µM (inactive). For the same compound, the GI50 in test [14], in [15], in [19], in test [16], in test [17] and in test [18] was > 100 µM (inactive) throughout.
On to `C/C(Cc1ccc2c(c1)OCO2)=N\N=c1\sc2ccccc2n1C`, for which the GI50 in [1] was > 100 µM (inactive); in test [2] it was > 100 µM (inactive); in test [3], 84.9 µM (inactive); in test [4], 72.9 µM (inactive); in [5], > 100 µM (inactive); in test [7] it was > 100 µM (inactive). The GI50 was > 100 µM (inactive) in [8]; 68.4 µM in [9]; > 100 µM (inactive) in test [10]; > 100 µM (inactive) in [11]; > 100 µM (inactive) in [12]; > 100 µM (inactive) in [13]. The GI50 in test [20] is 65.9 µM (inactive); in [14], > 100 µM (inactive); in test [15], > 100 µM (inactive); in [16] it was 45.2 µM (inactive); in [17], > 100 µM (inactive); in test [18], > 100 µM (inactive).
`N#Cc1sc2c(c1O)c(=O)n(-c1ccccc1)c(=S)n2-c1ccccc1`: the GI50 in [1], in test [2], in [3], in [4], in test [5] and in test [7] was > 100 µM (inactive) each time. Moreover, the GI50 is > 100 µM (inactive) in test [8]; greater than 100 µM in test [9]; > 100 µM (inactive) in test [10]; > 100 µM (inactive) in test [11]; > 100 µM (inactive) in test [12]; > 100 µM (inactive) in test [20]. For the same compound, the GI50 in test [14], in test [15], in [19], in test [16] and in [17] was > 100 µM (inactive) in each case.
